Calls of active or inactive are those of the source.
Columns and labels:
[1] = system: Streptococcus sp. 'group A'; assay: growth inhibition of control SK(-) GAS strain, dose response, counter-screen for streptokinase expression inhibitor project, luminescence, kanamycin, BacTiterGlo, confirmation (AID 1900); type: functional, organism-based
Streptokinase A = target: T1, Streptokinase A (Streptococcus pyogenes serotype M1, UniProt P10520); assay: S. pyogenes streptokinase expression inhibitors, potency, dose response, plasminogen activation absorbance, OD405 (AID 1914); type: functional, Streptococcus pyogenes M1 GAS;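 note: secreted streptokinase activity via plasminogen activation per viability signal from cell pellet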
T1 sequence (P10520 whole entry): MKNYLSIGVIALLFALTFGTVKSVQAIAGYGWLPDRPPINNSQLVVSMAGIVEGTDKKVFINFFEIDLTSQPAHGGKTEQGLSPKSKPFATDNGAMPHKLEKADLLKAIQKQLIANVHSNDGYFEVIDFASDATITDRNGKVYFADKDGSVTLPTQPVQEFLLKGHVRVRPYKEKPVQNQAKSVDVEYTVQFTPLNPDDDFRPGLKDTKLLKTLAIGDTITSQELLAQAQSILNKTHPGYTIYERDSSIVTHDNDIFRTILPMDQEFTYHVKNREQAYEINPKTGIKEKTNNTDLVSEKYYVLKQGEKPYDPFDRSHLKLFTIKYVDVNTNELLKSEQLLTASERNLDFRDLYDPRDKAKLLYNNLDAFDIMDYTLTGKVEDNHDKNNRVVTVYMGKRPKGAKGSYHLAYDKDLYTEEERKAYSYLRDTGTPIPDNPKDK

Streptococcus = assay: Group A Streptococcus viability loss, dose response, counter-screen for streptokinase expression inhibitor project, luminescence, BacTiterGlo (AID 1915); type: functional, organism-based;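 note: potency for reduction of bacterial viability or growth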
Caspase-3 = target: T2, Caspase-3 (Homo sapiens, UniProt P42574); type: functional;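 note: Dose-response selectivity test against caspase-3 for candidate inhibitors of sentrin-specific proteases (SENPs)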
T2 sequence (P42574 whole entry): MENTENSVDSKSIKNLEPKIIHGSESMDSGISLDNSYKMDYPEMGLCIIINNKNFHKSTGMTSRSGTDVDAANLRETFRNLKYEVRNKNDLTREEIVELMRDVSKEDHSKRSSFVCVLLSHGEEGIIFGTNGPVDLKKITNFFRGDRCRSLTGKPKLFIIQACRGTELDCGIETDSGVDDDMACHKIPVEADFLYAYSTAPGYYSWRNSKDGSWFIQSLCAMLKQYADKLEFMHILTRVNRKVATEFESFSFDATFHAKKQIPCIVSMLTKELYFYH

[2] = target: T3, Sentrin-specific protease 7 (Homo sapiens, UniProt Q9BQF6); type: functional;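 note: Luminescence-based dose-response confirmation of ultra-high-throughput screening hits, measuring inhibition of SENP7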
T3 sequence (Q9BQF6 whole entry): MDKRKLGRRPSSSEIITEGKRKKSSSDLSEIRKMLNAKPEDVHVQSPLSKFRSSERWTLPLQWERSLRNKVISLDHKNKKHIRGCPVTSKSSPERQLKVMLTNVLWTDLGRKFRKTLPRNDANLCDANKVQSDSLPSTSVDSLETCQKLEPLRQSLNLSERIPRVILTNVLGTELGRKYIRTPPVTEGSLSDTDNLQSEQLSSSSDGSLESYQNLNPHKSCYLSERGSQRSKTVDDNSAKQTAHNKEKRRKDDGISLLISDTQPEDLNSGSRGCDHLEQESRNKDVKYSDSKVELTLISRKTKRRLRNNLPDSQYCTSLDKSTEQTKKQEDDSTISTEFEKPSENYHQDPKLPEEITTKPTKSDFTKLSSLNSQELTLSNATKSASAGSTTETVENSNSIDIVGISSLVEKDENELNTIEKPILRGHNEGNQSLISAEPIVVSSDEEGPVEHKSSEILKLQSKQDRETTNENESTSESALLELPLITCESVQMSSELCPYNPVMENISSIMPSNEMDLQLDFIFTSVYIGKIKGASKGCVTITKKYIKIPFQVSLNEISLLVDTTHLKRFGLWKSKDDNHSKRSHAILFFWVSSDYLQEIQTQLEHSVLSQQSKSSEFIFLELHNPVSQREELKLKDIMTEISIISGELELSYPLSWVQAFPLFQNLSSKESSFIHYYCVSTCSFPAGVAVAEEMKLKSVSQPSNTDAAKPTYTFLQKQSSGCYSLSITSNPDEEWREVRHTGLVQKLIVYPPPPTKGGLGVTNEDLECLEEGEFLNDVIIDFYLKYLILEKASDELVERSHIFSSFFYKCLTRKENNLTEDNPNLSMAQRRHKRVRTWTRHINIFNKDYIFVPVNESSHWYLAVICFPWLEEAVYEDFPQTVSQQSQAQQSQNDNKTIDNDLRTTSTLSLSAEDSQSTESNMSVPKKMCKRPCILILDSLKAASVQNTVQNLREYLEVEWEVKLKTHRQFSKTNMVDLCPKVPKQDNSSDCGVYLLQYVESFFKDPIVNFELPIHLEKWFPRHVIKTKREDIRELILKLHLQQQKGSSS

[3] = target: T4, Sentrin-specific protease 6 (Homo sapiens, UniProt Q9GZR1); type: functional;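 note: Luminescence-based dose-response confirmatory assay of SENP6 inhibition, following up an ultra-high-throughput screen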
T4 sequence (Q9GZR1 whole entry): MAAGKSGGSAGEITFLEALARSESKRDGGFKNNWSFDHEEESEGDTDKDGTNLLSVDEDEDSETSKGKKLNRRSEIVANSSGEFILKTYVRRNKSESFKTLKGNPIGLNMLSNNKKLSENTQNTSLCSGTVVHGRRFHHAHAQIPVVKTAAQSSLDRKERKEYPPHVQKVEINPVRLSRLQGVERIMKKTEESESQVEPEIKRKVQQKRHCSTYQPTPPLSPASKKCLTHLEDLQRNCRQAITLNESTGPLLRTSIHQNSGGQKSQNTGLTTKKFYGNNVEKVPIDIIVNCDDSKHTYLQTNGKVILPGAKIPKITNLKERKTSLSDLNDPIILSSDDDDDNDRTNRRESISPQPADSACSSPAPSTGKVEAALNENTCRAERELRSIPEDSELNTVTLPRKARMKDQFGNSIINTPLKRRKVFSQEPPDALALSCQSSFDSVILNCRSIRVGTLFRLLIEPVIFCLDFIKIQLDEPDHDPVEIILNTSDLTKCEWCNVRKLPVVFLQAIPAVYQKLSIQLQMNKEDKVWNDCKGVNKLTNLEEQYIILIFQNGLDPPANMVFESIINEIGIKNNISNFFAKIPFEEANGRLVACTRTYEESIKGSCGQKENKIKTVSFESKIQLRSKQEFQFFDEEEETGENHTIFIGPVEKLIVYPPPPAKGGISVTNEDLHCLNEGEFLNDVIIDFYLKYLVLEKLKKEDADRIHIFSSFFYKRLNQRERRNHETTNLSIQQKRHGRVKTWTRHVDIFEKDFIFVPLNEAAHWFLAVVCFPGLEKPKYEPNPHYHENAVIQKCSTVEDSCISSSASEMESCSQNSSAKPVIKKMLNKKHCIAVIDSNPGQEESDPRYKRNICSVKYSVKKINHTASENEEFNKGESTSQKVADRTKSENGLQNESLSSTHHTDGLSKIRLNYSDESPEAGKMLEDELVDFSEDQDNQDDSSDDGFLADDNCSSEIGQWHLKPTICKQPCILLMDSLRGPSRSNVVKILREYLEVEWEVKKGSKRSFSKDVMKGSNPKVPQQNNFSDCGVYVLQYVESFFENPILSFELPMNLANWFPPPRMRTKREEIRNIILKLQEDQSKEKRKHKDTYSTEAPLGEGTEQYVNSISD

[4] = target: T5, Sentrin-specific protease 8 (Homo sapiens, UniProt Q96LD8); type: functional;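 note: luminescence read-out of SENP8 inhibition, dose-response confirmation following an ultra-high-throughput screen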
T5 sequence (Q96LD8 whole entry): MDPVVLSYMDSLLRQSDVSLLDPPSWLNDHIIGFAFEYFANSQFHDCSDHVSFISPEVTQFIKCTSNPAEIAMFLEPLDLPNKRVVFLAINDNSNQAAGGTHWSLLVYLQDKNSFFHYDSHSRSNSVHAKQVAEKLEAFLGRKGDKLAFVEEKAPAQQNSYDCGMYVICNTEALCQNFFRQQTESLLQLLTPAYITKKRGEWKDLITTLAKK

[5] = target: T6, Eukaryotic translation initiation factor 2-alpha kinase 3 (Homo sapiens, UniProt Q9NZJ5); assay: Dose response cell-based high-throughput screening assay to measure PERK inhibition. [Related pubchem assays: 1416 ]; type: functional
T6 sequence (Q9NZJ5 whole entry): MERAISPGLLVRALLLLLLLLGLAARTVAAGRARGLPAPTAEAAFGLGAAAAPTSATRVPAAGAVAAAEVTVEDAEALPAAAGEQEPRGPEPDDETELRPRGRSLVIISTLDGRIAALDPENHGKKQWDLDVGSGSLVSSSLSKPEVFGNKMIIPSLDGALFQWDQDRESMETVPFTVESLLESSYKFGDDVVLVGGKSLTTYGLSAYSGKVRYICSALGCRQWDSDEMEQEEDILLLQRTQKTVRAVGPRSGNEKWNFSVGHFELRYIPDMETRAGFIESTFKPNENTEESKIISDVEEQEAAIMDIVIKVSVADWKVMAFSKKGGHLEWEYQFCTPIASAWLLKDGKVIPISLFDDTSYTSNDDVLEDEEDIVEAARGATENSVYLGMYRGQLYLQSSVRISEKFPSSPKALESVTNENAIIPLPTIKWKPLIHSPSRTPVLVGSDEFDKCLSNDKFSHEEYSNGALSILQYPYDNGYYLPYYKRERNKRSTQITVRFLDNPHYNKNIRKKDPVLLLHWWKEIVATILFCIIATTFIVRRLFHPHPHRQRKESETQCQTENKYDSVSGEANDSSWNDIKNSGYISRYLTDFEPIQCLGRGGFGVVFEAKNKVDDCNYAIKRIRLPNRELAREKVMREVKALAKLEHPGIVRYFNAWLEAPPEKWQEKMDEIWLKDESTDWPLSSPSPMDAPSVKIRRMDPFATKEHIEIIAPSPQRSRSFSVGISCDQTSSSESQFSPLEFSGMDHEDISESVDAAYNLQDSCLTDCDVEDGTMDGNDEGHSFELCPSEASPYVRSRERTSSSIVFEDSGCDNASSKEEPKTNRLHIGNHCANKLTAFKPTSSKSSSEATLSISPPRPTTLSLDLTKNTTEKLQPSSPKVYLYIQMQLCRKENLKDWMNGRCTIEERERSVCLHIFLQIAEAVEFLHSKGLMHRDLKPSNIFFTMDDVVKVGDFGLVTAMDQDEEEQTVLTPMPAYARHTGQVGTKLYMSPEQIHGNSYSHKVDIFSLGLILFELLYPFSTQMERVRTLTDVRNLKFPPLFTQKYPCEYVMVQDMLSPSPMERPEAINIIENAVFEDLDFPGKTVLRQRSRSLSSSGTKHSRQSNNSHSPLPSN

[6] = target: T6, Eukaryotic translation initiation factor 2-alpha kinase 3; assay: Counterscreen assay for PERK inhibitors: Dose response cell-based high throughput screening assay to measure inhibition of PERK at 6 hours. [Related pubchem assays: 1522, 1416 ]; type: functional
Nonstructural protein 1 = Nonstructural protein 1 (Influenza A virus, UniProt Q194T2); type: functional, Influenza A virus (A/California/07/2009(H1N1))
[7] = NIH-3T3 fibroblast cytotoxicity, dose response, cytotoxicity control, cell-based, fluorescence, Alamar Blue, secondary assay (AID 2327); type: functional;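 note: NIH-3T3 mouse fibroblasts cultured with fluconazole at 8 µg/mL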
[8] = C. albicans growth with fluconazole, confirmation, fluorescence, retest (AID 2467); type: functional, cell-based
[9] = inhibitors of HIV Env-driven cell fusion, dose response, cherry-pick (AID 652057); type: functional, cell-based

Nonstructural protein 1, sequence (Q194T2 whole entry): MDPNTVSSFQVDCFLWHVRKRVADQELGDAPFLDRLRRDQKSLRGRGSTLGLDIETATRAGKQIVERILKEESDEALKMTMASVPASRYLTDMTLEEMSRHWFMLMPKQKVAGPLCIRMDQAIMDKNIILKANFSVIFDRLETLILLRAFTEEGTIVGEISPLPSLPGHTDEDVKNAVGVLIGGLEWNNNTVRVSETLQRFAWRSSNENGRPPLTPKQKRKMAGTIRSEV

Compound | IC50 (Caspase-3) | IC50 [2] | IC50 [3] | IC50 [4] | EC50 [5] | EC50 [6] | further results
Cc1ccc(-c2cc(-c3cccc(F)c3)[nH]n2)c(O)c1 | 47.2 µM (active) | 6.27 µM (active) | 12.2 µM (active) | 23.8 µM (active) |  |  | EC50 [1]: 7.23 µM (active); EC50 (Streptokinase A): 21.3 µM (active); EC50 (Streptococcus): > 150 µM (not active)
Cc1nnc(O)nc1NCCN(C)C |  |  |  |  | > 55.7 µM (not active) | > 55.7 µM (not active) | 
Cn1cc([N+](=O)[O-])c(C(=O)NCc2ccco2)n1 |  |  |  |  | > 55.7 µM (not active) | > 55.7 µM (not active) | 
O=C(CN1C(=O)COc2ccc(S(=O)(=O)N3CCOCC3)cc21)NCc1ccccn1 |  |  |  |  | > 55.7 µM (not active) | > 55.7 µM (not active) | 
Cc1cc(C(=O)N=Nc2c(O)n(C)c3ccccc23)c(C)o1 | 2.71 µM (active) | 4.99 µM (active) | 4.84 µM (active) | > 100 µM (inactive) |  |  | 
O=[N+]([O-])c1ccc(C2NS(=O)(=O)N=C3CCCCCN32)cc1 (stereo not given) |  |  |  |  | > 55.7 µM (not active) | > 55.7 µM (not active) | 
CCOc1cc(C2NC(S)=NC(C)=C2C(=O)Nc2ccc(OC)cc2)ccc1O (stereo not given) |  |  |  |  | > 55.7 µM (not active) | > 55.7 µM (not active) | 
CN(C)c1ccc(N=Nc2cccc3ccoc23)cc1 | 14.8 µM (active) | 3.81 µM (active) | 8.07 µM (active) | 8.97 µM (active) |  |  | IC50 (Nonstructural protein 1): 39.3 µM (active)
Oc1nc(Nc2ccccc2)sc1/C=C1\C=Nc2ccccc21 | 70.5 µM (active) | 6.51 µM (active) | > 100 µM (inactive) | > 100 µM (inactive) |  |  | EC50 [7]: 17.9 µM (active); EC50 [1]: 17.3 µM (active); EC50 (Streptokinase A): > 150 µM (not active); EC50 [8]: 1.73 µM (active); EC50 (Streptococcus): 26.6 µM (active)
C[C@@H]1CN([C@H](C)CO)C(=O)c2cccc(NS(=O)(=O)c3ccc(F)cc3)c2O[C@@H]1CN(C)Cc1ccc(C(F)(F)F)cc1 |  |  |  |  |  |  | AC50 [9]: < 0.26 µM (active)
Cc1ccc(COc2ccc(/C=N/O)cc2)cc1 | 17.2 µM (active) | 5.63 µM (active) | 14.6 µM (active) | 23.5 µM (active) |  |  | 

From ChEMBL document CHEMBL1201862, “PubChem BioAssay data set” (2004)
